Consider ten compounds from patent US6992083B2, “Benzoxazol derivatives” (Hoffman-La Roche Inc., priority 2003, dated 2006).

The target of test [1] is T1, human adenosine A2A receptor (Homo sapiens, UniProt P29274).
T1 construct: expressed in transfected cells; host or cells: CHO cells, Semliki Forest virus expression system; washed membrane preparation
Kind of test: [3H]-SCH-58261 binding assay, human adenosine A2A receptor. As to conditions: recombinant receptor in CHO cell membranes, [3H]-SCH-58261 1 nM, Ki by Cheng-Prussoff; read-out: hA2a pKi (converted). As for the experimental part: Human Adenosine A2A Receptor
The human adenosine A2A receptor was recombinantly expressed in Chinese hamster ovary (CHO) cells using the semliki forest virus expression system. Cells were harvested, washed twice by centrifugation, homogenised and again washed by centrifugation. The final washed membrane pellet was suspended in a Tris (50 mM) buffer containing 120 mM NaCl, 5 mM KCl, 2 mM CaCl2 and 10 mM MgCl2 (pH 7.4) (buffer A). The [^3H]-SCH-58261 (Dionisotti et al., 1997, Br J Pharmacol 121, 353; 1 nM) binding assay was carried out in 96-well plates in the presence of 2.5 μg of membrane protein, 0.5 mg of Ysi-poly-1-lysine SPA beads and 0.1 U adenosine deaminase in a final volume of 200 μl of buffer A. Non-specific binding was defined using xanthine amine congener (XAC; 2 μM). Compounds were tested at 10 concentrations from 10 μM–0.3 nM. All assays were conducted in duplicate and repeated at least two times. Assay plates were incubated for 1 hour at room temperature before centrifugation and then bound ligand determined using a Packard Topcount scintillation counter. IC50 values were calculated using a non-linear curve fitting program and Ki values calculated using the Cheng-Prussoff equation.

The target in a further test is T2, hA1 (Homo sapiens, UniProt P30542).
T2 sequence (P30542 1-326): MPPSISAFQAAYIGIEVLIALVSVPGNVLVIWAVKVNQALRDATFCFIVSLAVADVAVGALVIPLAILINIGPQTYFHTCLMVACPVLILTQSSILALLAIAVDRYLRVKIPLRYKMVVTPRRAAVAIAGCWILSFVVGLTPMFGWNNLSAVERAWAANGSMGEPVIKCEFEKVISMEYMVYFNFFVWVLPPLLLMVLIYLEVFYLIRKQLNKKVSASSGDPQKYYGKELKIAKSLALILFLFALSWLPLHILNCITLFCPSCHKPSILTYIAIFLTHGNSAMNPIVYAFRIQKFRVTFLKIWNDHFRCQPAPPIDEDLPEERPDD
Kind of test: selectivity to the A1 receptor. The format is binding. The settings on record: selectivity of A2a affinity versus hA1.

T1 sequence (P29274 whole entry): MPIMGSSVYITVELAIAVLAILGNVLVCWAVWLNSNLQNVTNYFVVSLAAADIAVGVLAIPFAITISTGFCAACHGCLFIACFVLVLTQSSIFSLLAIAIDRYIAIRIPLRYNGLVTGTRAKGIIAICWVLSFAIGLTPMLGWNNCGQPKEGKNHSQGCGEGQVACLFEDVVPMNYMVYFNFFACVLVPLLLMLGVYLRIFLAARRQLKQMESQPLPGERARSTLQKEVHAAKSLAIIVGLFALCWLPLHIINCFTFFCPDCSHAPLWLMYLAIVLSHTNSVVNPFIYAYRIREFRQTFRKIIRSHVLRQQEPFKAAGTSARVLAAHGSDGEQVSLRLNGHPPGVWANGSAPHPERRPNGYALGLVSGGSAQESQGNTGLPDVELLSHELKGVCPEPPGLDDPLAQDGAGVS

As for `COc1ccc(-c2ccc(F)cc2)c2oc(NC(=O)c3ccnc(N4CCOCC4)c3)nc12` [Example 20, N-[7-(4-Fluoro-phenyl)-4-methoxy-benzooxazol-2-yl]-2-morpholin-4-yl-isonicotinamide], the Ki in test [1] was 8.51 nM. The “selectivity to hA1” value on hA1 came to 650.
`COc1ccc(-c2ccc(F)cc2)c2oc(NC(=O)c3ccc(C)nc3)nc12` [Example 17, N-[7-(4-Fluoro-phenyl)-4-methoxy-benzooxazol-2-yl]-6-methyl-nicotinamide]: the Ki in test [1] was 12.9 nM. Besides, on hA1, the “selectivity to hA1” value was found to be 242.
On the same counts, the results for `COc1ccc(-c2ccc(F)cc2)c2oc(NC(=O)c3ccnc(C)c3)nc12` [Example 14, N-[7-(4-Fluoro-phenyl)-4-methoxy-benzooxazol-2-yl]-2-methyl-isonicotinamide] are 15.8 nM and 134.
Take `COc1ccc(-c2ccccc2)c2oc(NC(=O)c3ccc(F)cc3)nc12` [Example 1, 4-Fluoro-N-(4-methoxy-7-phenyl-benzooxazol-2-yl)-benzamide]: the Ki in test [1] is 12 nM. In addition, the “selectivity to hA1” value on hA1 was 26.
On the same counts, the results for `COc1ccc(C2CCOCC2)c2oc(NC(=O)c3ccnc(N4CCOCC4)c3)nc12` [Example 9, N-[4-Methoxy-7-(tetrahydro-pyran-4-yl)-benzooxazol-2-yl]-2-morpholin-4-yl-isonicotinamide] are 21.9 nM and 351.
On the same counts, the results for `COc1ccc(-c2ccc(F)cc2)c2oc(NC(=O)c3ccc(F)cc3)nc12` [Example 18, 4-Fluoro-N-[7-(4-fluoro-phenyl)-4-methoxy-benzooxazol-2-yl]-benzamide] are 6.46 nM and 120.
On the same counts, the results for `COc1ccc(C2CCOCC2)c2oc(NC(=O)c3ccc(F)cc3)nc12` [Example 5, 4-Fluoro-N-[4-methoxy-7-(tetrahydro-pyran-4-yl)-benzooxazol-2-yl]-benzamide] are 21.9 nM and 140.
Regarding `COCc1cc(C(=O)Nc2nc3c(OC)ccc(-c4ccc(F)cc4)c3o2)ccn1` [Example 21, N-[7-(4-Fluoro-phenyl)-4-methoxy-benzooxazol-2-yl]-2-methoxymethyl-isonicotinamide], the Ki in test [1] is 30.2 nM. For the same compound, at hA1, the “selectivity to hA1” value turned out to be 96.
On the same counts, the results for `COCCN(C)Cc1ccc(C(=O)Nc2nc3c(OC)ccc(-c4ccccc4)c3o2)cc1` [Example 2, 4-{[(2-Methoxy-ethyl)-methyl-amino]-methyl}-N-(4-methoxy-7-phenyl-benzooxazol-2-yl)-benzamide] are 22.4 nM and 137.
Regarding `COc1ccc(-c2ccc(F)cc2)c2oc(NC(=O)c3ccnc(CCl)c3)nc12` [Example 13, 2-Chloromethyl-N-[7-(4-fluoro-phenyl)-4-methoxy-benzooxazol-2-yl]-isonicotinamide], the Ki in test [1] was 22.9 nM. In addition, the “selectivity to hA1” value at hA1 is recorded as 227.
